A word on the CC50: it is the concentration at which the toxic effect on the cells reaches its halfway point. Usually EC50 stands for the concentration giving half of the maximal effect. Broadly, the inhibition is the relative decrease from the control value, in per cent.

The text below walks through data of publication PMC10610023, “Nucleoside Analog 2′,3′-Isopropylidene-5-Iodouridine as Novel Efficient Inhibitor of HIV-1” (Pharmaceutics, 2023).

A short description of data set [1]: Cell viability analysis, Trypan blue staining, Jurkat cells. The format is cell-based, human. To be noted: human, 72 h. Here is the method: (§1) In this study, we used Jurkat and CEM-ss (human T-lymphoblastic leukemia) cells cultured in RPMI-1640 medium and HEK293T (human embryonic kidney cells) cells cultured in a DMEM medium. Growth medium was supplemented with 10% FBS (fetal bovine serum), 2 mM L-glutamine, 1mM sodium pyruvate, 100 μg/mL of streptomycin, and 100 units/mL of penicillin (Gibco/Invitrogen Life technologies). Cells were cultured at 37 °C in a humidified atmosphere with 5% CO2.
(§2) Palbociclib was dissolved in H2O. At 72 h after treatment, cell viability was assessed by staining with a 0.4% Trypan blue solution (Invitrogene Corp., Carlsbad, CA, USA) by counting in a Neubauer chamber. CC50s were calculated by nonlinear regression with variable slope (four parameters) and robust fitting using the GraphPad Prism software v.8.4.3 (GraphPad Software, San Diego, CA, USA).

Data set [2] in a line: Cell viability analysis, Trypan blue staining, CEM-ss cells. The format is cell-based, human. To be noted: human, CEM-ss cells, 0–30 μM. The protocol: as §1, §2
In data set [3] the test system is HIV-1 based replication-defective lentiviral particles. Nature of the data set: microbe, parasite or virus in culture. Type of data set: cell-based. To be noted: for EC50: Human immunodeficiency virus 1, Jurkat, 72 h.
Data set [4] has the same test system. Nature of the data set: microbe, parasite or virus in culture. Type of data set: cell-based. To be noted: for EC50: Human immunodeficiency virus 1, CEM-SS, 72 h.
Data set [5] concerns Jurkat cells. Nature of the data set: Cell viability analysis, Trypan blue staining, Jurkat cells. Type of data set: cell-based, human. The protocol: as §1, §2
The subject of data set [6] is HIV-1 based replication-defective lentiviral particles. Nature of the data set: Drug combination analysis Palbociclib with AZT or 2f, VP-GFP transduction of Jurkat cells. The format is cell-based. To be noted: for inhibition at 0.0029 µM / inhibition at 0.0059 µM / inhibition at 0.0117 µM: Human immunodeficiency virus 1, Jurkat, read-out: Inhibition efficiency, %, Jurkat; for drug interaction with Palbociclib (ZIP synergy): pre-treated with Palbociclib 12 h. The protocol:
At 48 h post treatment with viral particles encoding marker GFP, the transduction efficiency was measured by flow cytometry (Figure 6E). In both combinations, Palbociclib was used in concentrations of ~3 nM, ~6 nM, or ~12 nM. […] Then, the dose-response matrixes were used to calculate synergy scores using ZIP algorithm (Figure 6F,G).

Data set [7] deals with Jurkat cells. Nature of the data set: Cell cycle analysis, propidium iodide staining, Jurkat cells. The format is cell-based, human. To be noted: concentrations up to 12 nM. The protocol: (§3) Apoptosis was measured by double staining with Annexin V-FITC (Invitrogene, Thermo Scientific, Waltham, MA, USA) and propidium iodide (PI) (Sigma, Cibolo, TX, USA) 72 h after transduction. To measure the distribution of cells in the phases of the cell cycle, Jurkat cells were fixed in ethanol and stained with propidium iodide. All measurements were performed on an LSR Fortessa flow cytometer (BD Biosciences, San Jose, CA, USA). […] Analysis of cell cycle rate was performed with ModFit LT software v.4.1.7 (Verity Software House, Topsham, ME, USA).

The test system of data set [8] is Jurkat cells. Nature of the data set: Apoptosis analysis, Annexin V-FITC/PI staining, Jurkat cells. The format is cell-based, human. As to conditions: 72 h, concentrations up to 12 nM. Here is the method: as §3
The test system of another data set is CEM-ss cells. Nature of the data set: Cell viability analysis, Trypan blue staining, CEM-ss cells. Type of data set: cell-based, human. To be noted: 72 h, concentrations up to 30 μM. Here is the method:
as §1, §2

In data set [9] the test system is HIV-1 based replication-defective lentiviral particles. Nature of the data set: Drug combination analysis AZT with 2f, VP-GFP transduction of Jurkat cells.
Procedure: (§4) In our experiments, we decided not to exceed the concentration of 30 μM of each drug in order to exclude the possible side effects of DMSO; concentration in a well for these experiments was not more than 0.06%. The equivalent concentration of DMSO (0.06%) was used in control samples of cells not treated with drugs. […] At 72 h after transduction, the percentage of eGFP-positive cells was determined by flow cytometry (LSR Fortessa, BD Biosciences, Heidelberg, Germany). […] Analysis of the eGFP positive cells percentage was performed with FlowJo software 10.0.7 (FlowJo LLC, Ashland, OR, USA).
(§5) For this we used both compounds at the wide range of concentrations.
(§6) Next, the synergy distribution plots were generated and analyzed using the Synergy Finder v3.0 web source. We used the ZIP model to calculate synergy scores that were used to interpret drug interaction relationships. Scores larger than 10 mean that the interaction between two drugs is synergistic. Scores up to 10 mean that the interaction is likely to be additive.
Data set [10] shares this test system. Nature of the data set: Drug combination analysis AZT with 2f, VP-GFP transduction of CEM-ss cells. To be noted: AZT and 2f in combination, up to 30 μM each.
Procedure: as §4, §5, §6
Where [11] appears, read: 72 h, concentrations up to 30 μM.

Structures are written as SMILES. Like-named read-outs stand apart in the source and are kept apart here. Bounds are passed on as bounds.

With `CC1(C)O[C@@H]2[C@H](O1)[C@@H](CO)O[C@H]2n1cc(Br)c(=O)[nH]c1=O` [2e, 2′,3′-O-isopropylidene-5-bromouridine], the CC50 at 72 h in data set [1] (0–30 μM) and in data set [2] was greater than 30 µM throughout. The concentration for a half-maximal effect (EC50) in data set [3] and in data set [4] was greater than 30 µM throughout.
For the compound `CC1(C)O[C@@H]2[C@H](O1)[C@@H](CO)O[C@H]2n1cc(Cl)c(=O)[nH]c1=O` [2d, 2′,3′-O-isopropylidene-5-chlorouridine], the CC50 at 72 h in [1] (0–30 μM) and in data set [2] was greater than 30 µM in each case. In addition, the EC50 in data set [3] and in [4] was greater than 30 µM in each case.
With `Cc1cn([C@@H]2O[C@H](CO)[C@H]3OC(C)(C)O[C@H]32)c(=O)[nH]c1=O` [2b, 2′,3′-O-isopropylidene-5-methyluridine], the cytotoxic concentration (CC50) at 72 h in data set [1] (0–30 μM) and in [2] was greater than 30 µM throughout. Besides, the 50% effective concentration (EC50) in data set [3] and in [4] was greater than 30 µM each time.
On to `CC(=O)c1c(C)c2cnc(Nc3ccc(N4CCNCC4)cn3)nc2n(C2CCCC2)c1=O` [Palbociclib], for which the CC50 at 72 h in [1] (Jurkat cells, Palbociclib 0–6 μM) was 0.141 ± 0.0256 µM. Besides, the “effect on cell survival” value in the data set with Jurkat cells [5] (concentrations up to 12 nM) was “not to affect cell survival”. For the same compound, the inhibition at 0.0029 µM in [6] (Palbociclib alone 2.9 nM (2f 0 nM, matrix of panel G)) turned out to be 10.8%; in [6] (Palbociclib alone 2.9 nM (AZT 0 nM, matrix of panel F)) it was 8.03%. The inhibition at 0.0059 µM in [6] (Palbociclib alone 5.9 nM (2f 0 nM, matrix of panel G)) amounted to 5.66%; in data set [6] (Palbociclib alone 5.9 nM (AZT 0 nM, matrix of panel F)), 8.75%. Besides, the inhibition at 0.0117 µM in data set [6] (Palbociclib alone 11.7 nM (2f 0 nM, matrix of panel G)) was found to be 3.9%; in data set [6] (Palbociclib alone 11.7 nM (AZT 0 nM, matrix of panel F)) it was 0.83%. For the same compound, in [6] (Jurkat, Palbociclib alone, ~3, ~6 or ~12 nM), the “suppressive effect on transduction efficiency of VP-GFP” value is “not more than 10%”. In addition, the “effect on cell cycle progression” value in the data set with Jurkat cells [7] is “did not find any effect on cell cycle progression”. Also, the induction of apoptosis result in the data set on Jurkat cells [8] is on record as “does not cause the induction of apotosis”.
In the case of `CC1(C)O[C@@H]2[C@H](O1)[C@@H](CO)O[C@H]2n1cc(F)c(=O)[nH]c1=O` [2c, 2′,3′-O-isopropylidene-5-fluorouridine], the CC50 at 72 h in data set [1] (0–30 μM) was found to be 7.9 ± 0.6 µM; in data set [2], 8.4 ± 2.2 µM. The “effect on cell survival” value with Jurkat cells [5] (setting [11]) and with CEM-ss cells was “significant suppressive effect on the survival” each time.
Regarding `CC1(C)O[C@@H]2[C@H](O1)[C@@H](CO)O[C@H]2n1ccc(=O)[nH]c1=O` [2a, 2′,3′-O-isopropylideneuridine], the cytotoxic concentration (CC50) at 72 h in data set [1] (0–30 μM) and in data set [2] was greater than 30 µM each time. Further, the 50% effective concentration (EC50) in data set [3] and in [4] was greater than 30 µM throughout.
For `CC1(C)O[C@@H]2[C@H](O1)[C@@H](CO)O[C@H]2n1cc(I)c(=O)[nH]c1=O` [2f, 2′,3′-O-isopropylidene-5-ioduridine], the CC50 at 72 h in data set [1] (0–30 μM) and in [2] was greater than 30 µM each time. The “effect on transduction efficiency of HIV-1 lentiviral particles (VP-GFP)” value in data set [3] is “caused the suppression of the transduction efficiency”. For the same compound, the concentration for a half-maximal effect (EC50) in data set [3] is 10.5 ± 1.2 µM; in data set [4], 13.1 ± 1.3 µM. Further, the “drug interaction with Palbociclib (ZIP synergy)” value in data set [6] (Jurkat) was “acts synergistically”. In addition, the “suppression of VP-GFP transduction efficiency” value is recorded as “same activity” in data set [9] (2f 12 μM supplemented with AZT 12 μM, compared with 2f alone 30 μM (90%)); 70% in [9] (compound alone, 12 μM); 90% in data set [9] (compound alone, 30 μM). Besides, the “drug interaction (ZIP synergy, SynergyFinder)” value is listed as “do not act synergistically” in data set [9] (AZT and 2f in combination, up to 30 μM each); “do not act synergistically” in [10].
Consider `Cc1cn([C@H]2C[C@H](N=[N+]=[N-])[C@@H](CO)O2)c(=O)[nH]c1=O` [AZT, 3′-Azido-2′,3′-dideoxythymidine, reference compound], for which the 50% cytotoxic concentration (CC50) at 72 h in [1] (Jurkat cells, 0–30 μM) is greater than 30 µM; in data set [2] it was greater than 30 µM. The “effect on cell survival” value in the data set on Jurkat cells [5] (setting [11]) and in the data set on CEM-ss cells was “did not affect cell survival” each time. Besides, the values for the EC50 in data set [3] and in data set [4] were 0.4 ± 0.1 µM and 0.0122 ± 0.0114 µM, respectively. Further, the “cells remaining GFP positive (plateau effect)” value is “about 30%” in [3] (Jurkat, from 2 μM up to 30 μM) and “about 20%” in data set [4] (CEM-ss, from 2 μM up to 30 μM). In addition, the “drug interaction with Palbociclib (ZIP synergy)” value in [6] (Jurkat) is “no synergistic action”.
